Activity calls are given as the source filed them. No cut-off for these calls is given here.
Experiments:
[1] = Oral bioavailability in Sprague-Dawley rat by LC-MS/MS analysis; type: ADME, organism-based; details: in vivo
[2] = molecular target: cGMP-specific 3',5'-cyclic phosphodiesterase (Homo sapiens, UniProt O76074)
[3] = organism: Rattus norvegicus; details: Wistar, 10 mg/kg
[4] = Oral bioavailability in rat; type: ADME, organism-based; details: in vivo
[5] = test system: Rattus norvegicus; test: Reduction in MCT-induced increase in mean pulmonary arterial pressure in Wistar rat model of monocrotaline pulmonary arterial hypertension assessed as mean pulmonary arterial pressure at 10 mg/kg, po for 3 weeks (reference value: 32.74 mmHg); type: functional
[6] = test system: Liver; test: Drug metabolism in rat liver microsomes assessed as metabolic rate; type: ADME, microsome
[7] = Apparent clearance in human microsomes; type: ADME, microsome; details: liver microsomes, read-out: CLH(app)
[8] = test system: Liver; test: Drug metabolism in human liver microsomes assessed as metabolic rate; type: ADME, microsome
[9] = test system: Liver; test: Intrinsic clearance in human liver microsomes; type: ADME, microsome
[10] = Half life in rat liver microsomes; type: ADME, microsome
[11] = Hepatic extraction ratio in human microsomes; type: ADME, microsome; details: liver microsomes, read-out: ERH
[12] = Hepatic clearance in human microsomes; type: ADME, microsome; details: liver microsomes
[13] = Apparent clearance in rat liver microsomes; type: ADME, microsome; details: read-out: CLH(app)
[14] = Half life in human microsomes; type: ADME, microsome; details: liver microsomes
[15] = Hepatic clearance in rat liver microsomes; type: ADME, microsome
[16] = test system: Liver; test: Intrinsic clearance in rat liver microsomes; type: ADME, microsome
[17] = Hepatic extraction ratio in rat liver microsomes; type: ADME, microsome; details: read-out: ERH

Compound	IC50 [2] [nM]	further results
O=c1c2ccccc2oc2c(Cc3ccc(O)cc3)[nH]c(-c3nccs3)c12	5.4	bioavailability [1]: < 10%
O=c1c2ccccc2oc2c(Cc3ccc(O)cc3)[nH]c(-c3cccnc3)c12	77	–
COC(=O)c1[nH]c(Cc2ccc(O)cc2)c2oc3ccccc3c(=O)c12	31	–
O=C(c1[nH]c(Cc2ccc(O)cc2)c2oc3ccccc3c(=O)c12)N1CCN(C2CC2)CC1	> 100	–
O=c1c2ccccc2oc2c(Cc3ccc(O)cc3)[nH]c(-c3ccccc3F)c12	16	–
O=c1c2ccccc2oc2c(Cc3ccc(O)cc3)[nH]c(-c3ccncc3)c12	> 100	–
O=c1c2ccccc2oc2c(Cc3ccc(O)cc3)[nH]c(-c3ccc(Cl)cn3)c12	50	–
Cc1ccc(-c2[nH]c(Cc3ccc(O)cc3)c3oc4ccccc4c(=O)c23)cc1	> 100	–
Cc1nnc(-c2[nH]c(Cc3ccc(O)cc3)c3oc4ccccc4c(=O)c23)o1	> 100	–
O=c1c2ccccc2oc2c(Cc3ccc(O)cc3)[nH]c(-c3ccncn3)c12	56	–
O=c1c2ccccc2oc2c(Cc3ccc(O)cc3)[nH]c(-c3ccncc3Cl)c12	> 100	–
CCCc1nn(C)c2c(=O)[nH]c(-c3cc(S(=O)(=O)N4CCN(C)CC4)ccc3OCC)nc12.O=C(O)CC(O)(CC(=O)O)C(=O)O [SILDENAFIL CITRATE]	–	inhibition [3]: Active; bioavailability [4]: 41%; Activity [5]: 22.13 mmHg
COc1ncccc1-c1[nH]c(Cc2ccc(O)cc2)c2oc3ccccc3c(=O)c12	> 100	–
O=c1c2ccccc2oc2c(Cc3ccc(O)cc3)[nH]c(-c3ccccn3)c12	21	–
O=c1c2ccccc2oc2c(Cc3ccc(O)cc3)[nH]c(-c3cccnc3O)c12	> 100	–
CC(C)(C)Oc1ccc(Cc2[nH]c(-c3nccs3)c3c(=O)c4ccccc4oc23)cc1	> 100	–
O=c1c2ccccc2oc2c(Cc3ccc(O)cc3)[nH]c(-c3cccnc3Cl)c12	> 100	–
CC(C)N1CCN(C(=O)c2[nH]c(Cc3ccc(O)cc3)c3oc4ccccc4c(=O)c23)CC1	> 100	–
O=c1c2ccccc2oc2c(Cc3ccc(C(F)(F)F)cc3)[nH]c(-c3nccs3)c12	30	–
Cc1ncc2n1-c1ccc(Cl)cc1C(c1ccccc1F)=NC2 [MIDAZOLAM]	–	K [6]: 0.2877; CLint scaled [7]: 488 mL/min/kg; K [8]: 0.2532; CLH [9]: 506.4 µL/min/mg; half-life [10]: 2.4 min; hepatic extraction ratio [11]: 0.96; CLhep predicted [12]: 19.2 mL/min/kg; CLint scaled [13]: 1040 mL/min/kg; half-life [14]: 2.7 min; CLhep predicted [15]: 53.2 mL/min/kg; CLH [16]: 574 µL/min/mg; hepatic extraction ratio [17]: 0.95
O=C(c1[nH]c(Cc2ccc(O)cc2)c2oc3ccccc3c(=O)c12)N1CCOCC1	> 100	–
O=c1c2ccccc2oc2c(Cc3ccc(O)cc3)[nH]c(-c3cc(Cl)ccn3)c12	> 100	–

Reference: ChEMBL document CHEMBL4011656, “Discovery and Optimization of Chromeno[2,3-c]pyrrol-9(2H)-ones as Novel Selective and Orally Bioavailable Phosphodiesterase 5 Inhibitors for the Treatment of Pulmonary Arterial Hypertension” (J Med Chem, 2017)
